One compound from article PMC12041661, “Dual MNK/VEGFR2 Inhibitor JDB153 Enhances Immunotherapeutic Efficiency and Chemosensitivity in Lung Cancer” (MedComm, 2025) can be followed below.

The target of assay [1] is T1, VEGFR2 (Homo sapiens, UniProt P35968).
T1 construct: gene KDR
Nature of the assay: radiometric kinase assay. It counts as biochemical.

The target in assay [2] is T2, MNK1 (Homo sapiens, UniProt Q9BUB5).
T2 construct: gene MKNK1
Nature of the assay: radiometric kinase assay. Format: biochemical.

SMILES strings stand for the structures.

T1 sequence (P35968 20-1356): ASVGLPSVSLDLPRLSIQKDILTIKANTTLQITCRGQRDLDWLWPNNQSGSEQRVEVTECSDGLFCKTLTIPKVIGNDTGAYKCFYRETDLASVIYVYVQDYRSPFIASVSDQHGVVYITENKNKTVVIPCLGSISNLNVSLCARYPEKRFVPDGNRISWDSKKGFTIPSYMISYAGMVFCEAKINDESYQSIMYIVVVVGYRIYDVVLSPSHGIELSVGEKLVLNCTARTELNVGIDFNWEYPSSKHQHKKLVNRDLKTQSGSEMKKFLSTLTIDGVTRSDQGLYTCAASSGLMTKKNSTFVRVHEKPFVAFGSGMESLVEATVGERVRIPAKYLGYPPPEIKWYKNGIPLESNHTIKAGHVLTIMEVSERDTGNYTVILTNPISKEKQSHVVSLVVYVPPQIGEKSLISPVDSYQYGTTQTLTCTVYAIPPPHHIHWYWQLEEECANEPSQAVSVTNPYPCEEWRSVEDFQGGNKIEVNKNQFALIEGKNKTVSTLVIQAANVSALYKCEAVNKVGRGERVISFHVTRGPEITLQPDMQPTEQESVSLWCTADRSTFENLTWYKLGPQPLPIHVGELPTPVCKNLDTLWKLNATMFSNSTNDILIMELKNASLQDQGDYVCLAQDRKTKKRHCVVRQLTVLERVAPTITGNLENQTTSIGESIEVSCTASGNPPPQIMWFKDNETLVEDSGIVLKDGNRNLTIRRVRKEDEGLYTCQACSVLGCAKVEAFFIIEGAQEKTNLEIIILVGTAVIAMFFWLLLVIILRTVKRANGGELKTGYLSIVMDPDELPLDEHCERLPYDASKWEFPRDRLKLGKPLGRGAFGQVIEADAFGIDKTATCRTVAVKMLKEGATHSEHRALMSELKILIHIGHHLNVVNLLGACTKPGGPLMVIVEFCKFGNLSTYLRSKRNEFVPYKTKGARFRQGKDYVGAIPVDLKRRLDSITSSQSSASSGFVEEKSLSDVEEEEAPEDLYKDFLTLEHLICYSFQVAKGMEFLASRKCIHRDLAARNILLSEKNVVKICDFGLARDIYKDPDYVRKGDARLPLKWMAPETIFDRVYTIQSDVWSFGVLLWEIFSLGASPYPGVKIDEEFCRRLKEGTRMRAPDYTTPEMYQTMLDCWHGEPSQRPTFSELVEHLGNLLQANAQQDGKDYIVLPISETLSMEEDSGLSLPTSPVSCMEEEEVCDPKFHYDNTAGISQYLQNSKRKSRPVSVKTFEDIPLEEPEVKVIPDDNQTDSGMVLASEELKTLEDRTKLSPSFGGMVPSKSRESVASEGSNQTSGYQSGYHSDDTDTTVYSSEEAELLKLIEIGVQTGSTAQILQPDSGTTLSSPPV
T2 sequence (Q9BUB5 whole entry): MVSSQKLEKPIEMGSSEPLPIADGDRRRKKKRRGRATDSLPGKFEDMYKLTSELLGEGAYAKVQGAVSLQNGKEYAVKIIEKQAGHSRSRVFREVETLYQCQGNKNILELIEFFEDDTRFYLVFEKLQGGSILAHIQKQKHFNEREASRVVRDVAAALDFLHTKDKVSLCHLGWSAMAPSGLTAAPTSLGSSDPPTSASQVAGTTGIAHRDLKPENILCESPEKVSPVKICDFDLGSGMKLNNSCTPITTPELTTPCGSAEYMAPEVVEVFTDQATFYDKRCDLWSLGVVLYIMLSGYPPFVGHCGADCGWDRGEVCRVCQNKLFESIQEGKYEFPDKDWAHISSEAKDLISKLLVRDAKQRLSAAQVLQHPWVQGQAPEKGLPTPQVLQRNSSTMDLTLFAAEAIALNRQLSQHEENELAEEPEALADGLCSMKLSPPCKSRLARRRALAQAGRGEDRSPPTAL

A word on the IC50: it is the midpoint of a concentration-inhibition curve. High values mean a need for much substance, low ones inhibition by little substance. Turning to `Cc1cc(Nc2ncnn3cc(OCCN4CCC(F)(F)C4)c(C)c23)c(=O)n2c1C(=O)NC21CCCC1` [JDB153], the IC50 worked out at 3 nM in assay [1] and 26.6 nM in assay [2].
